Like-named read-outs stand apart in the source and are kept apart here.
Legend:
hT2R3 = hT2R3 (Homo sapiens (Human), UniProt Q9NYW6); assay: hT2R panel inhibition, transient HEK293 G16g44, agonist Chloroquine pH6.5 50 μM; type: cell-based; settings: HEK293, compound at 25 μM; receptor activated to EC80 with the corresponding agonist; read-out: screening result against bitter receptor 3
Experimental: (§1) Specifically, in order to evaluate the inhibitory selectivity of the Compound C compound, this compound was tested against 22 human T2Rs which were deorphaned by Senomyx. These receptors and the bitter ligands that activate these human T2Rs are reported in earlier patent applications which are incorporated by reference herein. These 22 human T2Rs are hT2R1, 3, 4, 5, 7, 8, 9, 10, 13, 14, 16, 44, 51, 54, 55, 61, 63, 64, 65, 67, 71 and 75. The amino acid and nucleic acid sequences of all of these T2Rs may be found in these earlier patent applications. These human T2Rs were each individually transiently transfected into HEK293 cells that stably express the promiscuous G protein G16g44 and functional assays were effected using these receptors as disclosed in these same patent applications. […] The ligands were used at EC80 concentration levels. The list of bitter ligands utilized and the tested ligand concentrations are contained in Table 5 of this example.
(§2) Relating to the foregoing, FIG. 5 contains experimental results wherein Compound C was tested with different agonist compounds. The inhibition activity is represented by the reduction of receptor activity in the presence of Compound C. […] These 13 hT2Rs are hT2R3, 7, 10, 14, 16, 44, 51, 55, 61, 63, 64, 65, and 71.

hT2R67 = assay: hT2R panel inhibition, transient HEK293 G16g44, agonist Andrographolide 5 μM; type: cell-based, human; settings: compound at 25 μM; receptor activated to EC80 with the corresponding agonist
Experimental: as §1, §2

hT2R5 = hT2R5 (Homo sapiens (Human), UniProt Q9NYW4); assay: hT2R panel inhibition, transient HEK293 G16g44, agonist Picoline 10 mM; type: cell-based; settings: HEK293, compound at 25 μM; receptor activated to EC80 with the corresponding agonist; read-out: screening result against bitter receptor 5
Experimental: as §1, §2

hT2R14 [1] = target: T1, hT2R14 (Homo sapiens (Human), UniProt Q9NYV8); assay: hT2R panel inhibition, transient HEK293 G16g44, agonist Aristolochic Acid 2 μM; type: cell-based; settings: HEK293, compound at 25 μM
Experimental: as §1

hT2R55 = assay: hT2R panel inhibition, transient HEK293 G16g44, agonist Cinchonine 150 μM; type: cell-based, human; settings: compound at 25 μM; receptor activated to EC80 with the corresponding agonist
Experimental: as §1, §2

hT2R61 = hT2R61 (Homo sapiens (Human), UniProt P59537); assay: hT2R panel inhibition, transient HEK293 G16g44, agonist Aristolochic Acid 25 nM; type: cell-based; settings: HEK293, compound at 25 μM
Experimental: as §1, §2

hT2R63 = assay: hT2R panel inhibition, transient HEK293 G16g44, agonist Caffeine 1 mM or Andrographolide 100 μM; type: cell-based, human; settings: compound at 25 μM; for screening result against bitter receptor 63: receptor activated to EC80 with the corresponding agonist; for inhibition of bitter receptor 63: receptor activated to EC80 with agonist
Experimental: as §1, §2

hT2R64 = hT2R64 (Homo sapiens (Human), UniProt P59538); assay: hT2R panel inhibition, transient HEK293 G16g44, agonist Aristolochic Acid 1 μM; type: cell-based; settings: HEK293, compound at 25 μM; receptor activated to EC80 with the corresponding agonist; read-out: screening result against bitter receptor 64
Experimental: as §1, §2

hT2R10 = hT2R10 (Homo sapiens (Human), UniProt Q9NYW0); assay: hT2R panel inhibition, transient HEK293 G16g44, agonist Strychnine 50 μM; type: cell-based; settings: HEK293, read-out: screening result against bitter receptor 10, compound at 25 μM; receptor activated to EC80 with the corresponding agonist
Experimental: as §1, §2

hT2R71 = hT2R71 (Homo sapiens (Human), UniProt P59536); assay: hT2R panel inhibition, transient HEK293 G16g44, agonist Picric Acid 10 μM; type: cell-based; settings: HEK293, compound at 25 μM
Experimental: as §1, §2

hT2R44 = assay: hT2R panel inhibition, transient HEK293 G16g44, agonist Denatonium 0.5 μM; type: cell-based, human; settings: compound at 25 μM; for screening result against bitter receptor 44: receptor activated to EC80 with the corresponding agonist; for inhibition of bitter receptor 44: receptor activated to EC80 with agonist
Experimental: as §1, §2

hT2R7 = hT2R7 (Homo sapiens (Human), UniProt Q9NYW3); assay: hT2R panel inhibition, transient HEK293 G16g44, agonist Chloroquine pH6.5 10 mM; type: cell-based; settings: HEK293, compound at 25 μM
Experimental: as §1, §2

hT2R16 = hT2R16 (Homo sapiens (Human), UniProt Q9NYV7); assay: hT2R panel inhibition, transient HEK293 G16g44, agonist Salicin 1 mM; type: cell-based; settings: HEK293, compound at 25 μM; receptor activated to EC80 with the corresponding agonist; read-out: screening result against bitter receptor 16
Experimental: as §1, §2

hT2R65 = assay: hT2R panel inhibition, transient HEK293 G16g44, agonist Oleuropein 1 mM; type: cell-based, human; settings: compound at 25 μM
Experimental: as §1, §2

hT2R14 [2] = target: T1, hT2R14; assay: hT2R14 antagonist high-throughput FLIPR assay, stable cell line with G16g44, agonist aristolochic acid; type: cell-based; settings: Table D; read-out: hT2R14 IC50
Method in brief: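 Compounds were co-applied with 3 μM aristolochic acid, a dose set to reach 70-80% of maximal hT2R14 activation. Read-out was FLIPR fluorescence in a stable HEK293 line co-expressing hT2R14 and G16g44.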

[3] = receptor activated to EC80 with the corresponding agonist, read-out: screening result against bitter receptor 14
[4] = receptor activated to EC80 with the corresponding agonist, read-out: screening result against bitter receptor 61
[5] = receptor activated to EC80 with the corresponding agonist, read-out: screening result against bitter receptor 71
[6] = receptor activated to EC80 with the corresponding agonist, read-out: screening result against bitter receptor 7
[7] = receptor activated to EC80 with agonist, read-out: inhibition of bitter receptor 14
[8] = receptor activated to EC80 with agonist, read-out: inhibition of bitter receptor 61
[9] = receptor activated to EC80 with agonist, read-out: inhibition of bitter receptor 7

T1 sequence (Q9NYV8 whole entry): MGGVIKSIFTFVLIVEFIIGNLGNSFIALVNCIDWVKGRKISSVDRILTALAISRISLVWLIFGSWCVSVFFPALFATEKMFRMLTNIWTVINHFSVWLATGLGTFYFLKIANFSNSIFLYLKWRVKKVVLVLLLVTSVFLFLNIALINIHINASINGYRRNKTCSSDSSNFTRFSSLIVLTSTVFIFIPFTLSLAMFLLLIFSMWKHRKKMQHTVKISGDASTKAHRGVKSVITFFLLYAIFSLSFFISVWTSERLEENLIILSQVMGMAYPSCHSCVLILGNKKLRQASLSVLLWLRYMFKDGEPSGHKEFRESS
Sequence of hT2R61 (P59537 whole entry): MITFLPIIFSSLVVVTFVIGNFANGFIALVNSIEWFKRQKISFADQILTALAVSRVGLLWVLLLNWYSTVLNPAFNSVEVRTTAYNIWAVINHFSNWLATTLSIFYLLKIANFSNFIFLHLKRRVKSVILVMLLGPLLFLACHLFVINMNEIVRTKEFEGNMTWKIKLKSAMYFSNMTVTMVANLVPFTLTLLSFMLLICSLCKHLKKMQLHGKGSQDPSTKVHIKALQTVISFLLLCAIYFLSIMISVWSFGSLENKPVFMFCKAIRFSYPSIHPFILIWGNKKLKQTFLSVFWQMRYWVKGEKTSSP
Sequence of hT2R7 (Q9NYW3 whole entry): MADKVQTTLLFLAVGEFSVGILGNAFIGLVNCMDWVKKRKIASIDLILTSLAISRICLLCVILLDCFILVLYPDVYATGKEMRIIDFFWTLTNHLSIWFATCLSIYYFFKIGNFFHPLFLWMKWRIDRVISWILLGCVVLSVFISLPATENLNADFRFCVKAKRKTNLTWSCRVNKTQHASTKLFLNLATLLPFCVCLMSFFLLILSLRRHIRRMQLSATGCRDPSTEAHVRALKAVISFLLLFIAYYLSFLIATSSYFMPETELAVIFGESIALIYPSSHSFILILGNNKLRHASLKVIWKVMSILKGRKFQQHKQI
Sequence of hT2R10 (Q9NYW0 whole entry): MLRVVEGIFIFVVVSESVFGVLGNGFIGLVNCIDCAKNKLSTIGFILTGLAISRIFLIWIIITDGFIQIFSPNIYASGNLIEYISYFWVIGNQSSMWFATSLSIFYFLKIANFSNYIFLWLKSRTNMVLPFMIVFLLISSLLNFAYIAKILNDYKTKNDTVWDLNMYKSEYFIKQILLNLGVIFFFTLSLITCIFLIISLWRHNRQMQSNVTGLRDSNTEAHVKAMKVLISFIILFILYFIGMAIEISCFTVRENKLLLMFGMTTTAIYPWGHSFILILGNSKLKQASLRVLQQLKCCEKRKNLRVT
Sequence of hT2R71 (P59536 whole entry): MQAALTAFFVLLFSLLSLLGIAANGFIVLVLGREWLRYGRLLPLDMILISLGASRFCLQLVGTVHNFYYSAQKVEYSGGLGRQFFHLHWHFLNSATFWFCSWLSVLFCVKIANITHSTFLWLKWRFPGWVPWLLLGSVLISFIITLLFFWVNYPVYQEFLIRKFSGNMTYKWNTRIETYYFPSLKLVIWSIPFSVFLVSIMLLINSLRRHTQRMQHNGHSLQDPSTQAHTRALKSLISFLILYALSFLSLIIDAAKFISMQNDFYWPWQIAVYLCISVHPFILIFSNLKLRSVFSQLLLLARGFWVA
Sequence of hT2R5 (Q9NYW4 whole entry): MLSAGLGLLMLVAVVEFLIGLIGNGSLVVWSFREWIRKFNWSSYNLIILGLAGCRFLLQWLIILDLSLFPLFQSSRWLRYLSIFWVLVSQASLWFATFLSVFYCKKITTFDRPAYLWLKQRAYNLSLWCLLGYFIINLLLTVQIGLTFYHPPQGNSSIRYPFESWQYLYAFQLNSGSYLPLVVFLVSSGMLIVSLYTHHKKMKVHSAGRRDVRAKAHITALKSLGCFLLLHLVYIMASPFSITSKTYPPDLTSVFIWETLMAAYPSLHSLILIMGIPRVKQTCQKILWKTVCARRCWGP
Sequence of hT2R16 (Q9NYV7 whole entry): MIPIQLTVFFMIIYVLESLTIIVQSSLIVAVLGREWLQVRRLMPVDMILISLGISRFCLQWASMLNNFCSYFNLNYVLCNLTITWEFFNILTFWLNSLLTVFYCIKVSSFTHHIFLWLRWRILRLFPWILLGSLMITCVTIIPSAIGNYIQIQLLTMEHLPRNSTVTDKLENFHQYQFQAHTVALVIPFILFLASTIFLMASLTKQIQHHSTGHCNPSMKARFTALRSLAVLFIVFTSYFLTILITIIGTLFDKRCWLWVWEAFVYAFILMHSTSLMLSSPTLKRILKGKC
Sequence of hT2R3 (Q9NYW6 whole entry): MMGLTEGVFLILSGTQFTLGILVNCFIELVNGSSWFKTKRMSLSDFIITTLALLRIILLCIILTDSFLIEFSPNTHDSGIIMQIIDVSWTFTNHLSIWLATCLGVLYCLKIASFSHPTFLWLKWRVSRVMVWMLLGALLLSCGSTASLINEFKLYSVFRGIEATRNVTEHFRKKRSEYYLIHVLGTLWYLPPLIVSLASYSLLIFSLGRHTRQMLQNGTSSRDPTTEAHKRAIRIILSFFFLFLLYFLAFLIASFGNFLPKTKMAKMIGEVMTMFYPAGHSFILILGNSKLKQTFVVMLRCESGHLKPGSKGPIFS
Sequence of hT2R64 (P59538 whole entry): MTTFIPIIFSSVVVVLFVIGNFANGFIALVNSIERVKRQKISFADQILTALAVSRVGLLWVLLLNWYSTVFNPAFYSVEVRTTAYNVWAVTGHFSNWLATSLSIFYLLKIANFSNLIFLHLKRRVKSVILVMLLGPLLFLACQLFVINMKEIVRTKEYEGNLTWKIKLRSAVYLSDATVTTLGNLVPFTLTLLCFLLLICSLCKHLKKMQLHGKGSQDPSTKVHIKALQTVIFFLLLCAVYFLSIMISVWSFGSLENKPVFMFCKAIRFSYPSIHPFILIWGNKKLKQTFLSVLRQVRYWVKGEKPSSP

O=C(O)c1ccc(S(=O)(=O)NCc2ccco2)cc1 [Example 5-54, 4-(N-(furan-2-ylmethyl)sulfamoyl)benzoic acid]
inhibition at 25 µM (hT2R3): 20 to 40%
screening result against bitter receptor 67 (hT2R67): + (20% to 40% inhibition = +)

CN(Cc1ccccc1)S(=O)(=O)c1ccc(C(=O)O)cc1 [Example 5-55, 4-(N-benzyl-N-methylsulfamoyl)benzoic acid]
inhibition at 25 µM (hT2R3): 20 to 40%
inhibition at 25 µM (hT2R5): 20 to 40%
inhibition at 25 µM (hT2R14 [1]; [3]): > 80%
screening result against bitter receptor 55 (hT2R55): ++ (40% to 60% inhibition = ++)
inhibition at 25 µM (hT2R61; [4]): 20 to 40%
screening result against bitter receptor 63 (hT2R63): ++++ (80% or greater inhibition = ++++)
inhibition at 25 µM (hT2R64): 40 to 60%

COc1ccc(CN(Cc2ccccc2)S(=O)(=O)CCC(=O)O)cc1 [Example 5-57, 3-(N-benzyl-N-(4-methoxybenzyl)sulfamoyl)propanoic acid]
inhibition at 25 µM (hT2R3): 20 to 40%
inhibition at 25 µM (hT2R10): 20 to 40%
screening result against bitter receptor 55 (hT2R55): +++ (60% to 80% inhibition = +++)
inhibition at 25 µM (hT2R61; [4]): > 80%
inhibition at 25 µM (hT2R64): 40 to 60%

COc1ccc(CN(Cc2cccs2)S(=O)(=O)c2ccc(C(=O)O)cc2)cc1 [Example 5-61, 4-(N-(4-methoxybenzyl)-N-(thiophen-2-ylmethyl)sulfamoyl)benzoic acid]
inhibition at 25 µM (hT2R5): 20 to 40%
screening result against bitter receptor 55 (hT2R55): + (20% to 40% inhibition = +)
inhibition at 25 µM (hT2R61; [4]): 40 to 60%
screening result against bitter receptor 63 (hT2R63): ++++ (80% or greater inhibition = ++++)
inhibition at 25 µM (hT2R64): 20 to 40%
inhibition at 25 µM (hT2R71; [5]): 20 to 40%

COc1ccc(CN(Cc2ccccn2)S(=O)(=O)c2ccc(C(=O)O)cc2)cc1 [Example 5-87, 4-(N-(4-methoxybenzyl)-N-(pyridin-2-ylmethyl)sulfamoyl)benzoic acid]
inhibition at 25 µM (hT2R61; [4]): 40 to 60%
screening result against bitter receptor 63 (hT2R63): + (20% to 40% inhibition = +)
inhibition at 25 µM (hT2R64): 20 to 40%
screening result against bitter receptor 67 (hT2R67): + (20% to 40% inhibition = +)

COc1ccc(CN(Cc2cccnc2)S(=O)(=O)c2ccc(C(=O)O)cc2)cc1 [Example 5-88, 4-(N-(4-methoxybenzyl)-N-(pyridin-3-ylmethyl)sulfamoyl)benzoic acid]
inhibition at 25 µM (hT2R3): 20 to 40%
inhibition at 25 µM (hT2R14 [1]; [3]): 20 to 40%
screening result against bitter receptor 44 (hT2R44): + (20% to 40% inhibition = +)
inhibition at 25 µM (hT2R61; [4]): 40 to 60%
screening result against bitter receptor 63 (hT2R63): +++ (60% to 80% inhibition = +++)
inhibition at 25 µM (hT2R64): 20 to 40%
screening result against bitter receptor 67 (hT2R67): + (20% to 40% inhibition = +)
inhibition at 25 µM (hT2R71; [5]): 20 to 40%

COc1ccc(CN(Cc2ccccc2)S(=O)(=O)c2ccc(C(=O)O)cc2)cn1 [Example 5-90, 4-(N-benzyl-N-((6-methoxypyridin-3-yl)methyl)sulfamoyl)benzoic acid]
inhibition at 25 µM (hT2R3): 40 to 60%
inhibition at 25 µM (hT2R5): 20 to 40%
inhibition at 25 µM (hT2R7; [6]): 60 to 80%
inhibition at 25 µM (hT2R10): 40 to 60%
inhibition at 25 µM (hT2R14 [1]; [3]): > 80%
inhibition at 25 µM (hT2R16): 20 to 40%
screening result against bitter receptor 44 (hT2R44): +++ (60% to 80% inhibition = +++)
screening result against bitter receptor 55 (hT2R55): +++ (60% to 80% inhibition = +++)
inhibition at 25 µM (hT2R61; [4]): > 80%
screening result against bitter receptor 63 (hT2R63): ++++ (80% or greater inhibition = ++++)
inhibition at 25 µM (hT2R64): 60 to 80%
screening result against bitter receptor 65 (hT2R65; receptor activated to EC80 with the corresponding agonist): ++ (40% to 60% inhibition = ++)
inhibition at 25 µM (hT2R71; [5]): 60 to 80%

N#Cc1ccccc1CN(Cc1ccccc1)S(=O)(=O)c1ccc(C(=O)O)cc1 [Example 5-92, 4-(N-benzyl-N-(2-cyanobenzyl)sulfamoyl)benzoic acid]
inhibition at 25 µM (hT2R3): 20 to 40%
inhibition at 25 µM (hT2R5): 20 to 40%
inhibition at 25 µM (hT2R7; [6]): 20 to 40%
inhibition at 25 µM (hT2R10): 20 to 40%
inhibition at 25 µM (hT2R14 [1]; [3]): > 80%
inhibition at 25 µM (hT2R16): 20 to 40%
screening result against bitter receptor 44 (hT2R44): ++++ (80% or greater inhibition = ++++)
screening result against bitter receptor 55 (hT2R55): ++++ (80% or greater inhibition = ++++)
inhibition at 25 µM (hT2R61; [4]): > 80%
screening result against bitter receptor 63 (hT2R63): ++++ (80% or greater inhibition = ++++)
inhibition at 25 µM (hT2R64): > 80%
inhibition at 25 µM (hT2R71; [5]): 40 to 60%

COc1ccc(C(NS(=O)(=O)c2ccc(C(=O)O)cc2)c2ccccc2)cc1 (stereo not shown) [Example 5-97, 4-(N-((4-methoxyphenyl)(phenyl)methyl)sulfamoyl) benzoic acid]
inhibition at 25 µM (hT2R14 [1]; [3]): 20 to 40%
inhibition at 25 µM (hT2R16): 60 to 80%
screening result against bitter receptor 44 (hT2R44): + (20% to 40% inhibition = +)
inhibition at 25 µM (hT2R61; [4]): 20 to 40%
screening result against bitter receptor 63 (hT2R63): +++ (60% to 80% inhibition = +++)
inhibition at 25 µM (hT2R64): 20 to 40%

Cn1c(=O)c2cc(S(=O)(=O)Nc3ccc4c(c3)OCO4)ccc2n(C)c1=O [Example 6-5, N-(benzo[d][1,3]dioxol-5-yl)-1,3-dimethyl-2,4-dioxo-1,2,3,4-tetrahydroquinazoline-6-sulfonamide]
IC50 (hT2R14 [2]): 264 nM
inhibition at 25 µM (hT2R14 [1]; [7]): > 80%
inhibition of bitter receptor 44 (hT2R44): ++ (40% to 60% inhibition = ++)
inhibition at 25 µM (hT2R61; [8]): 20 to 40%
inhibition of bitter receptor 63 (hT2R63): ++++ (80% or greater inhibition = ++++)
inhibition of bitter receptor 65 (hT2R65; receptor activated to EC80 with agonist): ++ (40% to 60% inhibition = ++)
inhibition at 25 µM (hT2R71; receptor activated to EC80 with agonist, read-out: inhibition of bitter receptor 71): 60 to 80%

Cc1c(F)cccc1NS(=O)(=O)c1ccc2c(c1)c(=O)n(C)c(=O)n2C [Example 6-7, N-(3-fluoro-2-methylphenyl)-1,3-dimethyl-2,4-dioxo-1,2,3,4-tetrahydroquinazoline-6-sulfonamide]
inhibition at 25 µM (hT2R7; [9]): 20 to 40%
inhibition at 25 µM (hT2R14 [1]; [7]): 40 to 60%
inhibition of bitter receptor 63 (hT2R63): + (20% to 40% inhibition = +)

Cc1ccccc1NS(=O)(=O)c1ccc2c(c1)c(=O)n(C)c(=O)n2C [Example 6-9, 1,3-dimethyl-2,4-dioxo-N-o-tolyl-1,2,3,4-tetrahydroquinazoline-6-sulfonamide]
IC50 (hT2R14 [2]): 1730 nM
inhibition at 25 µM (hT2R7; [9]): 40 to 60%
inhibition at 25 µM (hT2R14 [1]; [7]): > 80%
inhibition of bitter receptor 44 (hT2R44): + (20% to 40% inhibition = +)
inhibition at 25 µM (hT2R61; [8]): 20 to 40%
inhibition of bitter receptor 63 (hT2R63): + (20% to 40% inhibition = +)

Source: patent publication US9247759B2, “Identification of human T2R receptors that respond to bitter compounds that elicit the bitter taste in compositions, and the use thereof in assays to identify compounds that inhibit (block) bitter taste in compositions and use thereof” (SENOMYX, INC., priority 2007, dated 2016)
